{"source": "patent US20230414628A1", "about": "“METHODS FOR TREATING DISEASES MEDIATED BY GLUTATHIONE PEROXIDASE 4” (priority 2022, published 2023)", "note": "Where a name gives a salt, the structure may show the parent alone.", "data": [{"test_system": "RAG01 (derived from fibroblasts of a patient diagnosed with SSMD) fibroblasts", "assay": "CellTiter-Glo concentration response in RAG01 fibroblasts", "assay_type": "cell-based, human", "conditions": "Homo sapiens, Fibroblast; RAG01 cell line; 72 hours incubation; CellTiter-Glo; percentage effect normalized to vehicle control; 10-point CRC from 10 μM; read-out: EC50", "procedure": "(§1) Compounds described herein were tested in three cell lines, RAG01 (derived from fibroblasts of a patient diagnosed with SSMD) fibroblasts, RAG02 (derived from fibroblasts of the patient's parent), and GM09503 (from supplier Corriell) (derived from a healthy donor) to each generate 10-point concentration response curves (CRC). The three cell lines were each thawed seven (7) days prior to seeding. The RAG01 cells were thawed in a medium supplemented with a-tocopherol. Cells were passaged four (4) days prior to the seeding. The α-tocopherol was removed from the RAG01 cells. Cells were then seeded at 900 cells per well in 384-well plates. Two replicates were prepared for two independent (replicate) experiments. All plates were then incubated with compounds described herein for 72 hours, prior to CellTiter-Glo assay. […] The assay was run using the CellTiter-Glo (Promega) following manufacturer's guidelines and luminescent spectrophotometric reading on PHERAstar FSX (BMG Labtech). A 0.1% dimethylsulfoxide (DMSO) was used as a blank (vehicle control); and a 1 μM Ferrostatin-1 was used as a control (CTRL).\n(§2) The raw data was analyzed using Activity Base® software. The compounds were evaluated by efficacy (percentage effect) normalized to the vehicle control. The percentage effect (PE) was determined from the signal increase in comparison to the vehicle control according to the formula below: […]\n(§3) The percentage effect values were then plotted against log concentration of the drug to generate a concentration response curve. The curves were fitted using a four-parameter fit, and curve tops and hillslopes were fixed where required and justified.", "units": {"EC50": "nM"}, "values": [{"smiles": "CC1=C(C(=O)OC(C)C)C(c2cccc([N+](=O)[O-])c2)C(C(=O)OC2CN(C(c3ccccc3)c3ccccc3)C2)=C(N)N1", "note": "(stereo not shown) [compound 1, azelnidipine]", "EC50": 3120}, {"smiles": "COC(=O)C1=C(C)NC(C)=C(C(=O)OCCN2CCN(C(c3ccccc3)c3ccccc3)CC2)C1c1cccc([N+](=O)[O-])c1", "note": "(stereo not shown) [compound 2, manidipine]", "EC50": 2900}, {"smiles": "Cc1c(-c2ccc(O)cc2)n(Cc2ccc(OCCN3CCCCCC3)cc2)c2ccc(O)cc12", "note": "[compound 3, bazedoxifene]", "EC50": 240}, {"smiles": "CN1CCN(c2ccc(C(=O)c3c(-c4ccc(O)cc4)sc4cc(O)ccc34)cc2)CC1", "note": "[compound 4, Y-134]", "EC50": 430}, {"smiles": "O=C(c1ccc(OCCN2CCCCC2)cc1)c1c(-c2ccc(O)cc2)sc2cc(O)ccc12", "note": "[compound 5, raloxifene]", "EC50": 458}, {"smiles": "CCCCCS(=O)(=O)CCCCCCCCCCn1c(-c2ccc(O)cc2)c(C)c2cc(O)ccc21", "note": "[compound 6, ZK-164015]", "EC50": 1630}, {"smiles": "Brc1cc2c(cc1[C@@H]1Nc3ccccc3[C@@H]3C=CC[C@@H]31)OCO2", "note": "[compound 7, G-15]", "EC50": 1660}, {"smiles": "CC(C)=CCc1c(O)cc(O)c2c(=O)c(O)c(-c3ccc(C(F)(F)F)cc3)oc12", "note": "[compound 8, SNG1153]", "EC50": 5510}, {"smiles": "COc1ccc(Nc2ccn(-c3ccccc3)n2)cc1", "note": "[compound 9, FPL 62064]", "EC50": 53}, {"smiles": "O=C1c2ccccc2-n2c1nc1ccccc1c2=O", "note": "[compound 10, trypthanthrin]", "EC50": 180}, {"smiles": "C=CCc1ccc(O)c(-c2ccc(O)c(CC=C)c2)c1", "note": "[compound 12, honokiol]", "EC50": 1210}, {"smiles": "CC1(S(=O)(=O)O)CC(=O)c2ccccc2C1=O", "note": "(stereo not shown) [compound 13]", "EC50": 1570}, {"smiles": "COC1=C(OC)C(=O)C(CCCCCCCCCCO)=C(C)C1=O", "note": "[compound 14, idebenone]", "EC50": 1600}, {"smiles": "CC(c1cc2ccccc2s1)N(O)C(N)=O", "note": "(stereo not shown) [compound 15, Zileuton]", "EC50": 1870}, {"smiles": "O=c1c(O)c(-c2ccc(O)cc2)oc2cc(O)cc(O)c12", "note": "[compound 16, kaempferol]", "EC50": 3210}, {"smiles": "CCNCc1cc(C(C)(C)C)c(O)c(C(C)(C)C)c1", "note": "[compound 17, LY 231617]", "EC50": 7360}, {"smiles": "CC(=O)O[C@]1(C(C)=O)CC[C@H]2[C@@H]3CCC4=CC(=O)CCC4=C3[C@@H](c3ccc(N(C)C)cc3)C[C@@]21C", "note": "[compound 18, ulipristal acetate]", "EC50": 2340}, {"smiles": "C#C[C@]1(O)CC[C@H]2[C@@H]3CCc4cc(O)ccc4[C@H]3CC[C@@]21C", "note": "[compound 19, ethinyl estradiol]", "EC50": 4480}, {"smiles": "CC#C[C@]1(O)CC[C@H]2[C@@H]3CCC4=CC(=O)CCC4=C3[C@@H](c3ccc(N(C)C)cc3)C[C@@]21C", "note": "[compound 20, Mifepristone]", "EC50": 2280}, {"smiles": "Oc1ccc(/C=C/c2cc(O)cc(O)c2)cc1", "note": "[compound 22, resveratrol]", "EC50": 6810}, {"smiles": "COc1cc(/C=C/c2ccc(O)cc2)cc(OC)c1", "note": "[compound 23, pterostilbene]", "EC50": 1610}, {"smiles": "CC(Cc1ccc(O)c(O)c1)C(C)Cc1ccc(O)c(O)c1", "note": "(stereo not shown) [compound 24, Nordihydroguaiaretic acid]", "EC50": 2490}, {"smiles": "COc1cc(C[C@H](C)[C@H](C)Cc2ccc3c(c2)OCO3)ccc1O", "note": "[compound 25, macelignan]", "EC50": 2860}, {"smiles": "CC(=O)Oc1c(C)cc(OCC(O)CNC(C)C)c(C)c1C", "note": "(stereo not shown) [compound 26, metipranolol]", "EC50": 403}, {"smiles": "CC(C)NCC(O)COc1cccc2[nH]c3ccccc3c12", "note": "(stereo not shown) [compound 27, carazolol]", "EC50": 3110}, {"smiles": "COc1ccccc1OCCNCC(O)COc1cccc2[nH]c3ccccc3c12", "note": "(stereo not shown) [compound 28, carvedilol]", "EC50": 4910}, {"smiles": "CCc1cc2c(cc1CC)CC(NC[C@H](O)c1ccc(O)c3[nH]c(=O)ccc13)C2", "note": "[compound 29, indacaterol]", "EC50": 1390}, {"smiles": "CC(=O)Oc1cc(C(C)C)c(OCCN(C)C)cc1C", "note": "[compound 30, Moxisylyte]", "EC50": 739}, {"smiles": "Cc1cc(C(C)(C)C)c(O)c(C)c1CC1=NCCN1", "note": "[compound 31, oxymetazoline]", "EC50": 1460}, {"smiles": "CN1CCN2c3c(cccc31)[C@@H]1CN(CCCC(=O)c3ccc(F)cc3)CC[C@@H]12", "note": "[compound 32, lumateperone]", "EC50": 636}, {"smiles": "Clc1ccc2c(c1)N=C(N1CCNCC1)c1ccccc1N2", "note": "[compound 34, desmethylclozapine]", "EC50": 2660}, {"smiles": "CC(C)(C)[C@@]1(O)CCN2C[C@@H]3c4ccccc4CCc4cccc(c43)[C@H]2C1", "note": "[compound 35, butaclamol]", "EC50": 2570}, {"smiles": "CN1CCc2cccc3c2[C@H]1Cc1ccc(O)c(O)c1-3", "note": "[compound 36, apomorphine]", "EC50": 140}, {"smiles": "Oc1cc2c(cc1O)C(c1ccccc1)CNCC2", "note": "(stereo not shown) [compound 38, SKF-38,393]", "EC50": 4310}, {"smiles": "CCCN(C/C=C/I)C1CCc2ccc(O)cc2C1", "note": "(stereo not shown) [compound 40, 7-hydroxy-PIPAT]", "EC50": 2740}, {"smiles": "CCCN(CCc1cccs1)[C@H]1CCc2c(O)cccc2C1", "note": "[compound 41, rotigotine]", "EC50": 3950}, {"smiles": "CCOC(=O)Nc1ccc2c(c1)N(C(=O)CCN(CC)CC)c1ccccc1S2", "note": "[compound 42, ethacizine]", "EC50": 478}, {"smiles": "CC(CN(C)C)CN1c2ccccc2Sc2ccc(C#N)cc21", "note": "(stereo not shown) [compound 43, cyamemazine]", "EC50": 1390}, {"smiles": "OCCN1CCN(CCCN2c3ccccc3Sc3ccc(Cl)cc32)CC1", "note": "[compound 44, perphenazine]", "EC50": 1410}, {"smiles": "O=C(CN1CCN(Cc2ccc3c(c2)OCO3)CC1)N1c2ccccc2Sc2ccccc21", "note": "[compound 46, fenoverine]", "EC50": 1500}, {"smiles": "CC(CN(C)C)CN1c2ccccc2Sc2ccccc21", "note": "(stereo not shown) [compound 47, trimeprazine]", "EC50": 1670}, {"smiles": "CN1CCCC(CN2c3ccccc3Sc3ccccc32)C1", "note": "(stereo not shown) [compound 48, mepazine]", "EC50": 1840}, {"smiles": "COc1ccc2c(c1)N(C[C@H](C)CN(C)C)c1ccccc1S2", "note": "[compound 49, Levomepromazine]", "EC50": 3210}, {"smiles": "COc1ccc2cccc(N3CCN(CCNC(=O)c4ccc(F)cc4)CC3)c2c1", "note": "[compound 50, S-14,506]", "EC50": 928}, {"smiles": "Cc1[nH]c2ccc(Cl)cc2c1C1=CCNCC1", "note": "[compound 51, EMD-386088]", "EC50": 1350}, {"smiles": "CCCN(C/C=C/I)C1CCc2cccc(O)c2C1", "note": "(stereo not shown) [compound 52, 8-hydroxy-PIPAT]", "EC50": 2380}, {"smiles": "COc1ccc(CC2NCCc3c2[nH]c2ccc(C)cc32)c(Cl)c1OC", "note": "(stereo not shown) [compound 53, LY-266,097]", "EC50": 2710}, {"smiles": "Oc1ccc2c3c1OC1c4c(c5ccccc5n4Cc4ccccc4)C[C@@]4(O)C(C2)N(CC2CC2)CC[C@]314", "note": "(stereo partly shown) [compound 54, N-Benzylnaltrindole HCl]", "EC50": 381}, {"smiles": "Oc1ccc2c3c1O[C@H]1c4oc5ccccc5c4C[C@@]4(O)[C@@H](C2)N(CC2CC2)CC[C@]314", "note": "[compound 55, Naltriben]", "EC50": 1320}, {"smiles": "C=C(C)CN1CC[C@]23c4c5ccc(O)c4OC2c2[nH]c4ccccc4c2C[C@@]3(O)[C@H]1C5", "note": "(stereo partly shown) [compound 56, SDM25N]", "EC50": 1410}, {"smiles": "Oc1ccc2c3c1O[C@H]1c4[nH]c5ccccc5c4C[C@@]4(O)[C@@H](C2)N(CC2CC2)CC[C@]314", "note": "[compound 57, Naltrindole]", "EC50": 2410}, {"smiles": "CC(C)(CO)Cc1cc(C(C)(C)C)c(O)c(C(C)(C)C)c1", "note": "[compound 58, 2,6-ditert-butyl-4-(3-hydroxy-2,2-dimethylpropyl)phenol]", "EC50": 350}, {"smiles": "CC(C)(C=O)Cc1cc(C(C)(C)C)c(O)c(C(C)(C)C)c1", "note": "[compound 59, 3-(3,5-Ditert-butyl-4-hydroxyphenyl)-2,2-dimethylpropanal]", "EC50": 928}, {"smiles": "Brc1ccc(NC2C3CC4CC(C3)CC2C4)cc1", "note": "(stereo not shown) [compound 60, bromantane]", "EC50": 429}, {"smiles": "COc1cc2c(cc1O)C(CCc1ccc(Cl)cc1)N(C)CC2", "note": "(stereo not shown) [compound 61, Ro 04-5595]", "EC50": 652}, {"smiles": "COc1ccc2c(c1)CN(C)CC2c1ccc(Cl)c(Cl)c1", "note": "(stereo not shown) [compound 62, Diclofensine]", "EC50": 3850}, {"smiles": "CO[C@H]1/C=C/O[C@@]2(C)Oc3c(C)c(O)c4c(O)c(c5c(nc6cc(C)ccn65)c4c3C2=O)NC(=O)/C(C)=C\\C=C\\[C@H](C)[C@H](O)[C@@H](C)[C@@H](O)[C@@H](C)[C@H](OC(C)=O)[C@@H]1C", "note": "[compound 64, rifaximin]", "EC50": 708}, {"smiles": "CC(C)(C)CC(C)(C)c1ccc(O)c(Cc2ccc(Cl)cc2Cl)c1", "note": "[compound 65, clofoctol]", "EC50": 2230}, {"smiles": "O=C1NC(=O)c2cc(Nc3ccccc3)c(Nc3ccccc3)cc21", "note": "[compound 66, CGP 52411]", "EC50": 202}, {"smiles": "C=CC(=O)Nc1cc(Nc2nccc(-c3cn(C)c4ccccc34)n2)c(OC)cc1N(C)CCN(C)C", "note": "[compound 67, osimertinib]", "EC50": 245}, {"smiles": "C=CC(=O)Nc1cccc(Nc2nc(Nc3ccc(NC4CN(CCF)C4)cc3OC)ncc2C(F)(F)F)c1", "note": "[compound 68, CNX-2006]", "EC50": 366}, {"smiles": "C=CC(=O)Nc1cccc(Oc2nc(Nc3ccc(N4CCN(C)CC4)cc3)nc3ccsc23)c1", "note": "[compound 70, Olmutinib]", "EC50": 485}, {"smiles": "CS(=O)(=O)CCNCc1ccc(-c2ccc3ncnc(Nc4ccc(OCc5cccc(F)c5)c(Cl)c4)c3c2)o1", "note": "[compound 71, lapatinib]", "EC50": 5130}]}, {"test_system": "RAG01 (derived from fibroblasts of a patient diagnosed with SSMD) fibroblasts", "assay": "CellTiter-Glo concentration response in RAG01 fibroblasts", "assay_type": "cell-based, human", "conditions": "RAG01 cell line; 72 hours incubation; CellTiter-Glo; percentage effect normalized to vehicle control; 10-point CRC from 10 μM; read-out: EC50", "procedure": "as §1, §2, §3", "units": {"EC50": "nM"}, "values": [{"smiles": "NC[C@@H]1O[C@H](C23CC4CC(CC(C4)C2)C3)Cc2c1ccc(O)c2O", "note": "[compound 39, A77636]", "EC50": 652}]}]}
